# In patent US20110059910A1, “Novel aromatic fluoroglycoside derivatives, pharmaceuticals comprising said compounds and the use thereof” (SANOFI-AVENTIS, priority 2008, published 2011):
# Target: T1, human sodium-dependent glucose transporter 1 (SGLT1, SLC5A1) (Homo sapiens, UniProt P13866)
# T1 construct: Bases 11 to 2005 correspond to the complete coding region of human SGLT1; expressed in transfected cells
# T1 sequence (P13866 1-664): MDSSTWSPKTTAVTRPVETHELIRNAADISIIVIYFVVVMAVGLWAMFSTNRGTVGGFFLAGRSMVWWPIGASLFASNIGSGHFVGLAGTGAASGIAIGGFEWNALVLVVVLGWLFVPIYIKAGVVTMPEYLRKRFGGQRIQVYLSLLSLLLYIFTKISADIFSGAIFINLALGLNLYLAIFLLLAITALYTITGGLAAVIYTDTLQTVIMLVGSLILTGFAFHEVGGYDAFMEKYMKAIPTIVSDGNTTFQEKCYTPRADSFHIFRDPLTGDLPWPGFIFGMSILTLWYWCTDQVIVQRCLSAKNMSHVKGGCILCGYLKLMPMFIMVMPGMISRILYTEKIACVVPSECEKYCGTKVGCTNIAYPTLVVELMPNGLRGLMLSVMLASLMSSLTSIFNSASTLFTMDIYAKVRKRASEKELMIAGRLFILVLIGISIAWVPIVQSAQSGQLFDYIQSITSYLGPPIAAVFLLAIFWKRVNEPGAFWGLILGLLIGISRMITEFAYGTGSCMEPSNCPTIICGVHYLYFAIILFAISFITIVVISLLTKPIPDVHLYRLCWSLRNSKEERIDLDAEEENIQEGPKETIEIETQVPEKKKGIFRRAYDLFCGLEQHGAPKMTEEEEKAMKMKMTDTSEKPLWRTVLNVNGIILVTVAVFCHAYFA
# Experiment: Inhibition of the transport activity of human SGLT1 in vitro (α-MDG uptake in CHO-TRex-hSGLT1 cells)
# Type: cell-based
# Conditions: 50 μM α-MDG, 30 min at room temperature
# Text: Inhibition of the Transport Activity of the Human Sodium-Dependent Glucose Transporter 1 (SGLT1, SLC5A1) In Vitro:
# 1. Cloning of an Expression Vector for Human SGLT1
# The cDNA for human SGLT1 was introduced into the pcDNA4/TO vector (Invitrogen) by means of standard methods of molecular biology as described in Sambrook et al. (Molecular Cloning, A Laboratory Manual, Second Edition). […] Bases 11 to 2005 correspond to the complete coding region of human SGLT1.
# 2. Production of a Recombinant Cell Line with Inducible Expression of Human SGLT1
# The expression vector for human SGLT1 was introduced into CHO-TRex cells (Invitrogen) by means of FuGene6 lipofection (Roche). To select single cell clones, 600 μg/ml of Zeocin (Invitrogen) was added to the cell culture medium (nutrient mixture F-12 (Ham), Invitrogen) supplemented with 10% fetal calf serum (BD Biosciences), 10 μg/ml Blasticidin S(CN Biosciences), 100 units/ml penicillin, 100 units/ml streptomycin). The functionality of the single cell clones resulting from the selection was tested via their uptake activity for radiolabeled methyl-α-D-glucopyranoside. That cell clone with the highest uptake activity for methyl-α-D-glucopyranoside, referred to hereinafter as CHO-TRex-hSGLT1, was selected for the further experiments and cultured further in the presence of 600 μg/ml Zeocin.
# 3. Measurement of the Inhibiting Action of Test Substances on the Uptake of methyl-α-D-glucopyranoside (α-MDG)
# CHO-TRex-hSGLT1 cells were seeded in cell culture medium in a concentration of 50 000 cells per well in Cytostar-T scintillating 96-well plates (Amersham Biosciences) and cultivated for 24 h. The expression of the recombinant human SGLT1 was induced by adding 1 μg/ml tetracycline for a further 24 h. For α-MDG uptake experiments, the cells were washed with PBS and then starved at 37° C. in starvation medium (PBS supplemented with 10% fetal calf serum) for 1 hour. After a further washing step with transport assay buffer (140 mM sodium chloride, 2 mM potassium chloride, 1 mM magnesium chloride, 1 mM calcium chloride, 10 mM HEPES/Tris, pH 7.5), the cells were incubated at room temperature either in the absence or presence of test substances of different concentration for 15 min. The test substances were diluted correspondingly in transport assay buffer proceeding from a 10 mM stock solution in dimethyl sulfoxide (40 μl/well). The assay was subsequently started by adding 10 μl of a mixture of radiolabeled methyl-α-D-[U-^14C]glucopyranoside (Amersham) and unlabeled methyl-α-D-glucopyranoside (Acros). The final concentration of methyl-α-D-glucopyranoside in the assay was 50 μM. After an incubation time of 30 min at room temperature, the reaction was stopped by adding 50 μl/well of 10 mM methyl-α-D-glucopyranoside in transport assay buffer (4° C.), and the radioactivity taken up into the cells was determined in a MicroBeta Scintillation Microplate Reader (Wallac).
# The half-maximum inhibiting action of the test substances (IC50 value) was determined as follows: • 4. Determination of the value for 0% inhibition. This is the measurement in the absence of substance, measured in sodium-containing transport assay buffer. • 5. Determination of the value for 100% inhibition. This is the measurement in the absence of substance, measured in sodium-free transport assay buffer (140 mM choline chloride, 2 mM potassium chloride, 1 mM magnesium chloride, 1 mM calcium chloride, 10 mM HEPES/Tris, pH7.5). • 6. Calculation of the percentage inhibition values of those measurements which were carried out in the presence of different concentrations of test substance. From this, it was then possible to determine that concentration of the test substance which reduces the uptake of the methyl-α-D-glucopyranoside by 50% (IC50 value).
row,IC50 [µM],Compound
1,0.97,CCc1ccc(Cc2cc(C3OC(CO)C(F)C(O)C3O)ccc2Cl)cc1 (centres unmarked) [Example 3]
2,0.174,COc1ccc(Cc2cccc(C3OC(CO)C(F)C(O)C3O)c2)cc1 (centres unmarked) [Example 5]
3,6.6,CCOC(=O)OCC1OC(c2ccc(F)c(Cc3ccc(OC)cc3)c2)C(O)C(O)C1F (centres unmarked) [Example 8]
4,3.6,COc1ccc(Cc2cc(C3OC(CO)C(F)C(O)C3O)ccc2F)cc1 (centres unmarked) [Example 9]
5,16,COc1ccc(Cc2cc(C3OC(CO)C(F)(F)C(O)C3O)ccc2F)cc1 (centres unmarked) [Example 11]
6,0.152,COc1ccc(Cc2cc(C3OC(CO)C(F)C(O)C3O)ccc2OC)cc1 (centres unmarked) [Example 13]
7,0.757,CCOc1ccc(Cc2cc(C3OC(CO)C(F)C(O)C3O)ccc2Cl)cc1 (centres unmarked) [Example 17]
8,23,CCOC(=O)OCC1OC(c2ccc(Cl)c(Cc3ccc(OC(F)(F)F)cc3)c2)C(O)C(O)C1F (centres unmarked) [Example 24]
9,3.5,OCC1OC(c2ccc(Cl)c(Cc3ccc(OC(F)(F)F)cc3)c2)C(O)C(O)C1F (centres unmarked) [Example 25]
10,2.7,COc1ccc(Cc2cc(C3OC(CO)C(F)C(O)C3O)ccc2Cl)nc1 (centres unmarked) [Example 36]
11,22.8,CCOC(=O)OC[C@H]1O[C@@H](c2ccc(OC(F)(F)F)c(Cc3ccc(OC)cc3)c2)[C@H](O)[C@@H](O)[C@@H]1F [Example 39]
12,0.232,COc1ccc(Cc2cc([C@@H]3O[C@H](CO)[C@@H](F)[C@H](O)[C@H]3O)ccc2OC(F)(F)F)cc1 [Example 40]
13,3.3,COc1ccc(Cc2cc([C@@H]3O[C@H](CO)C(F)(F)[C@H](O)[C@H]3O)ccc2OC(F)(F)F)cc1 [Example 42]
14,0.331,OC[C@H]1O[C@@H](c2ccc(Cl)c(Cc3ccc(Cl)cc3)c2)[C@H](O)[C@@H](O)[C@@H]1F [Example 44]
15,0.24,COc1ccc(Cc2cc([C@@H]3O[C@H](CO)[C@@H](F)[C@H](O)[C@H]3O)ccc2C(F)(F)F)cc1 [Example 48]
16,> 100,CCOC(=O)OC[C@H]1O[C@@H](c2ccc(C(F)(F)F)c(Cc3ccc(OC)cc3)c2)[C@H](O)[C@@H](O)C1(F)F [Example 49]
17,7.3,COc1ccc(Cc2cc([C@@H]3O[C@H](CO)C(F)(F)[C@H](O)[C@H]3O)ccc2C(F)(F)F)cc1 [Example 50]
18,0.18,COc1ccc(Cc2cc(C3OC(CO)C(F)C(O)C3O)ccc2Br)cc1 (centres unmarked) [Example 56]
19,0.461,CCc1ccc(Cc2cc(C3OC(CO)C(F)C(O)C3O)ccc2C)cc1 (centres unmarked) [Example 61]

# The remaining lines, values behind:
row,Compound,IC50 [µM]
1,CCc1ccc(Cc2cc(C3OC(CO)C(F)(F)C(O)C3O)ccc2Cl)cc1 (centres unmarked) [Example 1],8
2,CCOc1ccc(Cc2cc(C3OC(CO)C(F)(F)C(O)C3O)ccc2Cl)cc1 (centres unmarked) [Example 2],8
3,CCc1ccc(Cc2cc(C3OC(CO)C(F)C(O)C3O)ccc2Cl)s1 (centres unmarked) [Example 6],0.475
4,OCC1OC(c2ccc(Cl)c(Cc3cc4ccccc4s3)c2)C(O)C(O)C1F (centres unmarked) [Example 7],1.3
5,CCOC(=O)OCC1OC(c2ccc(F)c(Cc3ccc(OC)cc3)c2)C(O)C(O)C1(F)F (centres unmarked) [Example 10],13
6,CCOC(=O)OCC1OC(c2ccc(OC)c(Cc3ccc(OC)cc3)c2)C(O)C(O)C1F (centres unmarked) [Example 12],1.5
7,COc1ccc(Cc2cc(C3OC(CO)C(F)(F)C(O)C3O)ccc2OC)cc1 (centres unmarked) [Example 15],0.611
8,CCOC(=O)OCC1OC(c2ccc(Cl)c(Cc3ccc(OCC)cc3)c2)C(O)C(O)C1F (centres unmarked) [Example 16],25
9,CCOC(=O)OCC1OC(c2ccc(Cl)c(Cc3ccc(OCC)cc3)c2)C(O)C(O)C1(F)F (centres unmarked) [Example 18],42
10,CCOC(=O)OCC1OC(c2ccc(Cl)c(Cc3ccc(OC)cc3)c2)C(O)C(O)C1(F)F (centres unmarked) [Example 21],50
11,COc1ccc(Cc2cc(C3OC(CO)C(F)(F)C(O)C3O)ccc2Cl)cc1 (centres unmarked) [Example 22],1.4
12,CCOC(=O)OCC1OC(c2ccc(Cl)c(Cc3ccc(OC(F)(F)F)cc3)c2)C(O)C(O)C1(F)F (centres unmarked) [Example 26],> 10
13,OCC1OC(c2ccc(Cl)c(Cc3ccc(OC(F)(F)F)cc3)c2)C(O)C(O)C1(F)F (centres unmarked) [Example 27],16
14,OC[C@H]1O[C@@H](c2ccc(Cl)c(Cc3ccc(O)cc3)c2)[C@H](O)[C@@H](O)C1(F)F [Example 30],1.2
15,CC(C)Oc1ccc(Cc2cc([C@@H]3O[C@H](CO)C(F)(F)[C@H](O)[C@H]3O)ccc2Cl)cc1 [Example 31],12
16,Cc1ccc(C2OC(CO)C(F)(F)C(O)C2O)cc1Cc1ccc(O)cc1 (centres unmarked) [Example 33],2.6
17,COc1ccc(Cc2cc(C3OC(CO)C(F)(F)C(O)C3O)ccc2C)cc1 (centres unmarked) [Example 34],1.5
18,CCOC(=O)OCC1OC(c2ccc(Cl)c(Cc3ccc(OC)cn3)c2)C(O)C(O)C1F (centres unmarked) [Example 35],4.3
19,CCOC(=O)OCC1OC(c2ccc(Cl)c(Cc3ccc(OC)cn3)c2)C(O)C(O)C1(F)F (centres unmarked) [Example 37],23.4
20,COc1ccc(Cc2cc(C3OC(CO)C(F)(F)C(O)C3O)ccc2Cl)nc1 (centres unmarked) [Example 38],26.5
21,CCOC(=O)OC[C@H]1O[C@@H](c2ccc(OC(F)(F)F)c(Cc3ccc(OC)cc3)c2)[C@H](O)[C@@H](O)C1(F)F [Example 41],11.8
22,OC[C@H]1O[C@@H](c2ccc(Cl)c(Cc3ccc(Cl)cc3)c2)[C@H](O)[C@@H](O)C1(F)F [Example 46],2.6
